Test results reported in US12247029B2, “Heterocyclic compounds as class II phosphoinositide 3-kinase inhibitors” (Forschungsverbund Berlin e.V., priority 2018, dated 2025).

biological target: PI3KC2α Δ1-298 (Homo sapiens (Human), UniProt O00443); assay: ADP-Glo kinase assay with purified PI3KC2α Δ1-298; assay type: biochemical; details: not given
Procedure, shortened: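 Purified human PI3KC2α Δ1-298 (10 ng/μl) with liver PI (200 μM) and ATP (40 μM), 20 min kinase reaction; ADP formed read by ADP-Glo luminescence after 40 min ATP depletion. Screening compounds at 10 μM; reactions lacking PI served as negative control.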

Chain of PI3KC2α Δ1-298 (O00443 299-1686): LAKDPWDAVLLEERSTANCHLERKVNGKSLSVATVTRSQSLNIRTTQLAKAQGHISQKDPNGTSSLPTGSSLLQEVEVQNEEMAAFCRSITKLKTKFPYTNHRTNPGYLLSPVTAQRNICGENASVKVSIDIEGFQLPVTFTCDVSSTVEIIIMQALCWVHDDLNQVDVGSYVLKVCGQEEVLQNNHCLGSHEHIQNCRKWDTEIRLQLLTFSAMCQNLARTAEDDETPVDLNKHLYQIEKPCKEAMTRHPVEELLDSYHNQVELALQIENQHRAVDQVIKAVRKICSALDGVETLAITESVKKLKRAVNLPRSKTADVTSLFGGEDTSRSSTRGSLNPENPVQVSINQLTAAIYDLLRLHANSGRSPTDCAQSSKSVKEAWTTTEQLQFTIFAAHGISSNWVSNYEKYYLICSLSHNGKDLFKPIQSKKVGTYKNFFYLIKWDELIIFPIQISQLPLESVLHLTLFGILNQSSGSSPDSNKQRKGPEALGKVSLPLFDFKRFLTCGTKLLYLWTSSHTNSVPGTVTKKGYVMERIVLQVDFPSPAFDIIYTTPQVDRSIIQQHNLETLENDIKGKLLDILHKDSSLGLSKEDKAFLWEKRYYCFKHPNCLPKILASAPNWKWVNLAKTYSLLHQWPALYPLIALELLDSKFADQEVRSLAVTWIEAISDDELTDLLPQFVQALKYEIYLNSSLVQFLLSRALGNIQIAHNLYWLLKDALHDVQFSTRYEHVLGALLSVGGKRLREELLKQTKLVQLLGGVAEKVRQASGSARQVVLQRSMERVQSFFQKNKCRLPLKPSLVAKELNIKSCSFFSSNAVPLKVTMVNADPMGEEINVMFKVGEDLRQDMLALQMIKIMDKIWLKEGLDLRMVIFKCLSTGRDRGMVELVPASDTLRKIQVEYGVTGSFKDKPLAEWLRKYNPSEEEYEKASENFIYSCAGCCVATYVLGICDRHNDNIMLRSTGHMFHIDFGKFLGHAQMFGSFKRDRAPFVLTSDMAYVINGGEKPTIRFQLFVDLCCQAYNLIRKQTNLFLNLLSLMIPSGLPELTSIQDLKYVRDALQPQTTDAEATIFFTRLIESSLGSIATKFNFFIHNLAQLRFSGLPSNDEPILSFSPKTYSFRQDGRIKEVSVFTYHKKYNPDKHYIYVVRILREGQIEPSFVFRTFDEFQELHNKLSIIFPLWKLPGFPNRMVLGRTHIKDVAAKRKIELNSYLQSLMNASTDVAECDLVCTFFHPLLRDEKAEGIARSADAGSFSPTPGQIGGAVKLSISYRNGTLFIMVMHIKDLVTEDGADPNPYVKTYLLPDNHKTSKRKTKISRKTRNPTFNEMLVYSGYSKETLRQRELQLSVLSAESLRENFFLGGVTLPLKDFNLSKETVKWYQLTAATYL

inhibition at 10 µM [%] | PI3KC2α inhibitory activity (in words, SAR) | Structure (SMILES)
28 | – | O=C(CCc1nc2nccnc2c(=O)n1CCc1ccccc1)NCc1ccccc1 [Example Compound 101, N-Benzyl-3-(4-oxo-3-phenethyl-3,4-dihydropteridin-2-yl)propanamide]
– | functional compounds | O=C(CSc1nc2nccnc2c(=O)n1CCc1cccc(F)c1)Nc1nc(-c2ccc(F)cc2)cs1 [Example Compound 6, 2-((3-(3-Fluorophenethyl)-4-oxo-3,4-dihydropteridin-2-yl)thio)-N-(4-(4-fluorophenyl)thiazol-2-yl)acetamide]
– | functional compounds | O=C(CSc1nc2nccnc2c(=O)n1CCc1ccccc1)Nc1ncc(Br)s1 [Example Compound 29, N-(5-Bromothiazol-2-yl)-2-((4-oxo-3-phenethyl-3,4-dihydropteridin-2-yl)thio)acetamide]
36 | – | O=C(CCc1nc2nccnc2c(=O)n1CCc1ccccc1)NCCc1ccccc1 [Example Compound 102, 3-(4-Oxo-3-phenethyl-3,4-dihydropteridin-2-yl)-N-phenethylpropanamide]

same assay, conditions: read-out: IC50 (PI3KC2α; ADP-Glo™ assay)

IC50 [nM] | Structure (SMILES)
280 | Cc1nnc(NS(=O)(=O)c2ccc(-n3c(SCC(=O)Nc4nccs4)nc4nccnc4c3=O)cc2)s1 [Example Compound 80, 2-((3-(4-(N-(5-Methyl-1,3,4-thiadiazol-2-yl)sulfamoyl)phenyl)-4-oxo-3,4-dihydropteridin-2-yl)thio)-N-(thiazol-2-yl)acetamide]
1900 | O=c1[nH]c(CSc2nc3nccnc3c(=O)n2CCc2ccccc2)nc2ccccc12 [Example Compound 67, 2-(((4-Oxo-3,4-dihydroquinazolin-2-yl)methyl)thio)-3-phenethylpteridin-4(3H)-one]
7600 | N#Cc1ccc(NC(=O)CSc2nc3nccnc3c(=O)n2CCc2ccccc2)nc1 [Example Compound 28, N-(5-Cyanopyridin-2-yl)-2-((4-oxo-3-phenethyl-3,4-dihydropteridin-2-yl)thio)acetamide]
51 | NC(=O)c1ccc(-n2c(SCC(=O)Nc3nccs3)nc3nccnc3c2=O)cc1 [Example Compound 41, 4-(4-Oxo-2-((2-oxo-2-(thiazol-2-ylamino)ethyl)thio)pteridin-3(4H)-yl)benzamide]
17200 | O=C(CSc1nc2nccnc2c(=O)n1CCc1ccccc1)Nc1cc(-c2ccccc2)cs1 [Example Compound 27, 2-((4-Oxo-3-phenethyl-3,4-dihydropteridin-2-yl)thio)-N-(4-phenylthiophen-2-yl)acetamide]
840 | O=C(CSc1nc2nccnc2c(=O)n1CCc1cccc(F)c1)Nc1nccs1 [Example Compound 4, 2-((3-(3-Fluorophenethyl)-4-oxo-3,4-dihydropteridin-2-yl)thio)-N-(thiazol-2-yl)acetamide]
100 | O=c1c2nccnc2nc(SCc2nc3ccccc3[nH]2)n1CCc1ccc(O)cc1 [Example Compound 96, 2-(((1H-Benzo[d]imidazol-2-yl)methyl)thio)-3-(4-hydroxyphenethyl)pteridin-4(3H)-one]
27000 | O=c1c2nccnc2nc(SCc2nc3cc(Cl)ccc3[nH]2)n1CCc1ccccc1 [Example Compound 69, 2-(((5-Chloro-1H-benzo[d]imidazol-2-yl)methyl)thio)-3-phenethylpteridin-4(3H)-one]
610 | O=C(CSc1nc2nccnc2c(=O)n1CCc1cccc(F)c1)Nc1nc(-c2ccc(F)cc2)cs1 [Example Compound 6, 2-((3-(3-Fluorophenethyl)-4-oxo-3,4-dihydropteridin-2-yl)thio)-N-(4-(4-fluorophenyl)thiazol-2-yl)acetamide]
2200 | COC(=O)Cc1csc(NC(=O)CSc2nc3nccnc3c(=O)n2CCc2ccccc2)n1 [Example Compound 24, Methyl 2-(2-(2-((4-oxo-3-phenethyl-3,4-dihydropteridin-2-yl)thio)acetamido)thiazol-4-yl)acetate]
620 | CNC(=O)c1ccc(-n2c(SCC(=O)Nc3nccs3)nc3nccnc3c2=O)cc1 [Example Compound 81, 4 N-Methyl-4-(4-oxo-2-((2-oxo-2-(thiazol-2-ylamino)ethyl)thio)pteridin-3(4H)-yl)benzamide]
6600 | O=C(CSc1nc2nccnc2c(=O)n1-c1ccccc1)Nc1nccs1 [Example Compound 40, 2-((4-Oxo-3-phenyl-3,4-dihydropteridin-2-yl)thio)-N-(thiazol-2-yl)acetamide]
7100 | O=C(CSc1nc2nccnc2c(=O)n1CCc1cccc(F)c1)NC1CC1 [Example Compound 7, N-Cyclopropyl-2-((3-(3-fluorophenethyl)-4-oxo-3,4-dihydropteridin-2-yl)thio)acetamide]
150 | Nc1cccc(-c2csc(NC(=O)CSc3nc4nccnc4c(=O)n3CCc3ccccc3)n2)c1 [Example Compound 59, N-(4-(3-Aminophenyl)thiazol-2-yl)-2-((4-oxo-3-phenethyl-3,4-dihydropteridin-2-yl)thio)acetamide]
760 | O=C(CSc1nc2nccnc2c(=O)n1CCc1ccccc1)Nc1nc(-c2ccsc2)cs1 [Example Compound 23, 2-((4-Oxo-3-phenethyl-3,4-dihydropteridin-2-yl)thio)-N-(4-(thiophen-3-yl)thiazol-2-yl)acetamide]
16000 | C[C@@H](c1ccccc1)n1c(SCc2nc3ccccc3[nH]2)nc2nccnc2c1=O [Example Compound 90, (S)-2-(((1H-Benzo[d]imidazol-2-yl)methyl)thio)-3-(1-phenylethyl)pteridin-4(3H)-one]
42000 | Cc1ccnc2[nH]c(CSc3nc4nccnc4c(=O)n3CCc3ccccc3)nc12 [Example Compound 70, 2-(((7-Methyl-3H-imidazo[4,5-b]pyridin-2-yl)methyl)thio)-3-phenethylpteridin-4(3H)-one]
1200 | N#Cc1ccc(-n2c(SCC(=O)Nc3nccs3)nc3nccnc3c2=O)cc1 [Example Compound 85, 2-((3-(4-Cyanophenyl)-4-oxo-3,4-dihydropteridin-2-yl)-thio)-N-(thiazol-2-yl)acetamide]
120 | O=C(CSc1nc2nccnc2c(=O)n1CCc1ccccc1)Nc1nc(-c2cccc(O)c2)cs1 [Example Compound 1, N-(4-(3-Hydroxyphenyl)thiazol-2-yl)-2-((4-oxo-3-phenethyl-3,4-dihydropteridin-2-yl)thio)acetamide]
610 | O=c1c2nccnc2nc(SCc2nc3cccnc3[nH]2)n1CCc1ccccc1 [Example Compound 73, 2-(((3H-Imidazo[4,5-b]pyridin-2-yl)methyl)thio)-3-phenethylpteridin-4(3H)-one]
1500 | O=C(CSc1nc2nccnc2c(=O)n1CCc1cccc(C(F)(F)F)c1)Nc1nccs1 [Example Compound 9, 2-((4-Oxo-3-(3-(trifluoromethyl)phenethyl)-3,4-dihydropteridin-2-yl)thio)-N-(thiazol-2-yl)acetamide]
2300 | O=C(CSc1nc2nccnc2c(=O)n1CC(F)(F)c1ccccc1)Nc1nccs1 [Example Compound 18, 2-((3-(2,2-Difluoro-2-phenylethyl)-4-oxo-3,4-dihydropteridin-2-yl)thio)-N-(thiazol-2-yl)acetamide]
6600 | O=C(CSc1nc2nccnc2c(=O)n1CCc1ccccc1)Nc1ncc(Br)s1 [Example Compound 29, N-(5-Bromothiazol-2-yl)-2-((4-oxo-3-phenethyl-3,4-dihydropteridin-2-yl)thio)acetamide]
1200 | CC(C)(C)OC(=O)N1CCC(n2c(SCc3nc4ccccc4[nH]3)nc3nccnc3c2=O)CC1 [Example Compound 94, tert-Butyl 4-(2-(((1H-benzo[d]imidazol-2-yl)methyl)thio)4-oxopteridin-3(4H)-yl)piperidine-1-carboxylate]
3100 | COc1cccc2nc(NC(=O)CSc3nc4nccnc4c(=O)n3CCc3ccccc3)sc12 [Example Compound 56, N-(7-Methoxybenzo[d]thiazol-2-yl)-2-((4-oxo-3-phenethyl-3,4-dihydropteridin-2-yl)thio)acetamide]
